Consider eleven compounds from ChEMBL document CHEMBL1201862, “PubChem BioAssay data set” (2004).

Some test systems named below: KM12; HCC 2998; MDA-MB-231; MCF7; ACHN; NCI-H226; MDA-N; NCI-H23; OVCAR-4; UACC-62; SW-620; DU-145; SK-MEL-5; SK-MEL-2; SF-295; SNB-75; HL-60; SK-MEL-28; SR.
Assay in all cases: growth of human tumour cells (NCI), 48 h

Molecules are shown by their SMILES.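 Five concentrations, 48 hours, 96-well plates. Here, GI50 denotes the concentration required for 50% inhibition of growth.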 Calls of active or inactive are those of the source. Rule as the data show it: active = GI50 up to about 1.1 µM and inactive = higher.

Take `COc1cccc2c1OC1c3ccccc3OCC1(O)C2` (stereo not given): the GI50 with KM12, in the experiment with HCC 2998, in the experiment with MDA-MB-231, in the experiment with MCF7, with ACHN and in the experiment on NCI-H226 was > 100 µM (inactive) throughout. The GI50 in the experiment on MDA-N, with NCI-H23, in the experiment on OVCAR-4, in the experiment on UACC-62, in the experiment on SW-620 and in the experiment on DU-145 was > 100 µM (inactive) throughout. For the same compound, the GI50 in the experiment on SK-MEL-5, in the experiment on SK-MEL-2, in the experiment on SF-295 and in the experiment on SNB-75 was > 100 µM (inactive) each time.
Regarding `CC1=NN(c2ccc(S(=O)(=O)O)cc2)C2(C1)SCC(=O)N2c1nc2ccccc2s1` (stereo not given), the GI50 in the experiment with KM12 is > 100 µM (inactive); with HL-60, 0.195 µM (active); in the experiment on HCC 2998, > 100 µM (inactive); in the experiment on MDA-MB-231, > 100 µM (inactive); with MCF7, > 100 µM (inactive); with ACHN it was > 100 µM (inactive). Besides, the GI50 in the experiment with NCI-H226, in the experiment on MDA-N, with NCI-H23, in the experiment on OVCAR-4, in the experiment on UACC-62 and with SW-620 was > 100 µM (inactive) each time. Besides, the GI50 with DU-145, with SK-MEL-5, in the experiment on SK-MEL-28, in the experiment with SK-MEL-2, in the experiment with SF-295 and with SNB-75 was > 100 µM (inactive) each time.
For the compound `CC1=CC(=O)[C@@H](O)[C@]2(C)[C@H]3[C@@]4(O)OC[C@]35[C@H]([C@@H](C)[C@H]4O)[C@@H](O)C(=O)O[C@@H]5C[C@@H]12`, the GI50 is 0.202 µM (active) in the experiment with KM12; 0.227 µM (active) in the experiment on HCC 2998; 0.252 µM (active) in the experiment on MDA-MB-231; 0.0382 µM (active) in the experiment on MCF7; 0.348 µM (active) with ACHN; 0.194 µM (active) with NCI-H226. Besides, the GI50 in the experiment on MDA-N was 0.213 µM (active); in the experiment on NCI-H23 it was 0.192 µM (active); in the experiment on OVCAR-4, 0.597 µM (active); with SR it was 77.6 µM (inactive); in the experiment on UACC-62, 0.312 µM (active); with SW-620, 0.428 µM (active). Also, the GI50 in the experiment with DU-145 is 0.33 µM (active); in the experiment with SK-MEL-5, 0.118 µM (active); in the experiment with SK-MEL-28 it was 0.156 µM (active); in the experiment with SK-MEL-2 it was 0.219 µM (active); in the experiment on SF-295, 0.339 µM (active); in the experiment with SNB-75, 0.0706 µM (active).
In the case of `Cc1occc1/C(S)=N\c1ccc(Cl)c(C(=O)OCC(F)(F)F)c1`, the GI50 in the experiment on KM12 is 20.8 µM (inactive); with HL-60, 24.4 µM (inactive); in the experiment with HCC 2998 it was 18.7 µM (inactive); with MDA-MB-231, 18 µM (inactive); in the experiment with MCF7, 12.2 µM (inactive); with ACHN it was 21.8 µM (inactive). Further, the GI50 in the experiment on NCI-H226 was 18.6 µM (inactive); in the experiment on MDA-N, 29 µM (inactive); in the experiment with NCI-H23, 19.7 µM (inactive); with OVCAR-4 it was 17.9 µM (inactive); with UACC-62 it was 16.4 µM (inactive); in the experiment on SW-620 it was 23.7 µM (inactive). Moreover, the GI50 in the experiment with DU-145 is 22.4 µM (inactive); in the experiment with SK-MEL-5 it was 16.7 µM (inactive); in the experiment with SK-MEL-28, 21.5 µM (inactive); in the experiment with SK-MEL-2 it was 22 µM (inactive); with SNB-75, 24.1 µM (inactive).
Turning to `C(=N\Nc1nnc2c(n1)[nH]c1ccccc12)/c1cccnc1`, the GI50 in the experiment on KM12 is 3.69 µM (inactive); in the experiment on HL-60, > 100 µM (inactive); in the experiment on HCC 2998, > 100 µM (inactive); in the experiment on MDA-MB-231, > 100 µM (inactive); in the experiment with MCF7, > 100 µM (inactive); with ACHN, > 100 µM (inactive). Also, the GI50 in the experiment on NCI-H226, with MDA-N, in the experiment on NCI-H23, in the experiment with OVCAR-4, in the experiment with UACC-62 and in the experiment with SW-620 was > 100 µM (inactive) throughout. Besides, the GI50 with DU-145, with SK-MEL-5, in the experiment on SK-MEL-28, in the experiment with SK-MEL-2, in the experiment on SF-295 and in the experiment with SNB-75 was > 100 µM (inactive) throughout.
Take `Cc1ccc(S(=O)(=O)Nc2nnc(S(N)(=O)=O)s2)cc1`: the GI50 in the experiment on KM12, with HCC 2998, in the experiment with MDA-MB-231, in the experiment with MCF7, with ACHN and in the experiment on NCI-H226 was > 100 µM (inactive) each time. Further, the GI50 with MDA-N, with NCI-H23, with OVCAR-4, with SR, with UACC-62 and with SW-620 was > 100 µM (inactive) in each case. The GI50 with DU-145, with SK-MEL-5, in the experiment on SK-MEL-28, with SK-MEL-2 and in the experiment with SF-295 was > 100 µM (inactive) throughout.
Regarding `CCOC(=O)C(Cc1ccc(OC(=O)c2ccc(OC)cc2OC)cc1)NC(=O)C(F)(F)F` (stereo not given), the GI50 in the experiment on KM12 was 29.4 µM (inactive); in the experiment with HL-60, 21.9 µM (inactive); in the experiment on HCC 2998 it was 16.5 µM (inactive); with MDA-MB-231, 57.7 µM (inactive); with MCF7, 19.7 µM (inactive); in the experiment on ACHN, 17.2 µM (inactive). Besides, the GI50 with NCI-H226 was 65.2 µM (inactive); with MDA-N, 20 µM (inactive); in the experiment on NCI-H23 it was 22.1 µM (inactive); in the experiment on OVCAR-4 it was 23.5 µM (inactive); in the experiment with UACC-62, 16.1 µM (inactive); in the experiment with SW-620, > 100 µM (inactive). For the same compound, the GI50 is 19.8 µM (inactive) in the experiment on DU-145; 37.3 µM (inactive) in the experiment with SK-MEL-5; 24.6 µM (inactive) in the experiment on SK-MEL-2; 31.7 µM (inactive) with SF-295; 16.4 µM (inactive) in the experiment on SNB-75.
`Cc1ccc(OCC2OC(n3cnc4nc(Nc5ccc(Cl)c(Cl)c5)nc(Cl)c43)CC2Oc2ccc(C)cc2)cc1` (stereo not given): the GI50 is > 100 µM (inactive) in the experiment on KM12; > 100 µM (inactive) in the experiment on HCC 2998; > 100 µM (inactive) in the experiment with MDA-MB-231; > 100 µM (inactive) in the experiment on MCF7; > 100 µM (inactive) in the experiment on ACHN; 46.9 µM (inactive) in the experiment with NCI-H226. Besides, the GI50 in the experiment with MDA-N, with NCI-H23, with OVCAR-4, in the experiment on UACC-62, with SW-620 and in the experiment with DU-145 was > 100 µM (inactive) throughout. The GI50 in the experiment with SK-MEL-5, in the experiment on SK-MEL-28, with SK-MEL-2, in the experiment on SF-295 and in the experiment with SNB-75 was > 100 µM (inactive) in each case.
Take `CC(=O)c1ccc(NCc2cc(O)ccc2O)cc1`: the GI50 with KM12 was 14.2 µM (inactive); in the experiment on HL-60, 3.53 µM (inactive); with MDA-MB-231, 21.8 µM (inactive); in the experiment with MCF7 it was 21.7 µM (inactive); in the experiment on ACHN, 18.5 µM (inactive); with NCI-H226, 34.7 µM (inactive). In addition, the GI50 is 20.4 µM (inactive) with MDA-N; 22.5 µM (inactive) with NCI-H23; 18.5 µM (inactive) in the experiment on OVCAR-4; 15.3 µM (inactive) in the experiment on UACC-62; 36.7 µM (inactive) in the experiment with SW-620; 23 µM (inactive) in the experiment on DU-145. For the same compound, the GI50 with SK-MEL-5 was 18.3 µM (inactive); with SK-MEL-28, 40.3 µM (inactive); in the experiment on SK-MEL-2, 20.4 µM (inactive); in the experiment on SF-295, 17.8 µM (inactive); in the experiment with SNB-75 it was 13.7 µM (inactive).
Take `Cc1cccc2c(O)c3c(O)cc(O)cc3nc12`: the GI50 with KM12, in the experiment on HCC 2998, with MDA-MB-231, in the experiment on MCF7, in the experiment with ACHN and in the experiment on NCI-H226 was > 10 µM (inactive) throughout. For the same compound, the GI50 with MDA-N, in the experiment with NCI-H23, in the experiment with OVCAR-4, in the experiment on UACC-62, in the experiment with SW-620 and in the experiment on DU-145 was > 10 µM (inactive) each time. Further, the GI50 in the experiment with SK-MEL-5 is 9.71 µM (inactive); with SK-MEL-28, > 10 µM (inactive); with SK-MEL-2 it was > 10 µM (inactive); with SF-295 it was > 10 µM (inactive); in the experiment with SNB-75, 7.24 µM (inactive).
In the case of `COc1ccc(N2C(=O)C3c4[nH]c5ccc(OC)cc5c4C4CCC(C(C)C)CC4C3C2=O)cc1` (stereo not given), the GI50 in the experiment on KM12 was > 100 µM (inactive); with HL-60 it was 55.2 µM (inactive); with HCC 2998 it was 33.7 µM (inactive); with MDA-MB-231, 30.4 µM (inactive); in the experiment on MCF7, > 100 µM (inactive); with ACHN, > 100 µM (inactive). Besides, the GI50 with NCI-H226 is > 100 µM (inactive); in the experiment with MDA-N, > 100 µM (inactive); with NCI-H23, > 100 µM (inactive); with OVCAR-4 it was > 55.1 µM (inactive); in the experiment with UACC-62, > 31.6 µM (inactive); in the experiment with SW-620 it was > 75.3 µM (inactive). The GI50 was > 100 µM (inactive) in the experiment on DU-145; > 100 µM (inactive) in the experiment on SK-MEL-5; > 73.6 µM (inactive) with SK-MEL-28; > 59.4 µM (inactive) in the experiment with SK-MEL-2; 31.2 µM (inactive) with SF-295; 17.7 µM (inactive) with SNB-75.
